Several values for one entry are separate records, joined by “and”; a condition that tells them apart may be missing. Equal entries are not always repeated.
Tests used:
[1] = test system: peripheral blood mononuclear cells (PBMCs); experiment: MTT cytotoxicity assay on PBMCs; assay type: cell-based, human; details: 3 µM
Description: (§1) The supernatant obtained from PBMCs (1 × 10^6 cells/mL) treated and incubated (72 h, 37 °C, 5% CO2, 95% humidity) with BA and PEG–BA (3 µM) were used for this assay. Cytotoxicity was performed on isolated PBMCs (see Supplementary Materials for isolation protocol) using the 3-(4,5-dimethylthiazol-2-yl)-2,5-diphenyl tetrazolium bromide (MTT) assay as previously described. For the cytometric bead array (CBA) assay, the PBMCs were isolated from both consenting PC patients (n = 4) and healthy control donors (n = 2). Ethics clearance to collect blood samples was obtained from the Human Research Ethics Committee (Medical) of the University of the Witwatersrand (M170440). The PBMCs were stimulated with 2 µg/mL of phytohaemagglutinin-protein (PHA-P). After the 72 h incubation period, the cells and medium were transferred to 5 mL Falcon® round-bottom polypropylene tubes and centrifuged at 433× g for 5 min at room temperature. Aliquots of the cell-free supernatant were collected and stored at −80 °C until needed for experiments.

[2] = MTT cytotoxicity assay on PBMCs; assay type: cell-based, human; details: human, peripheral blood mononuclear cells (PBMCs), n = 4, read-out: PBMC viability
Description: as §1

Vero cells = experiment: XTT cytotoxicity assay on Vero cells; assay type: cell-based; details: 72 h
Description: The cytotoxic effect of BA and PEG–BA was assessed using the 2,3-bis-(2-methoxy-4-nitro-5-sulfophenyl)-2H-tetrazolium-5-carboxanilide (XTT) assay, an improved tetrazolium dye based assay that obviates the solubilisation step [41]. A concentration of 1 × 10^5 cells/mL each of adherent MIA PaCa-2 and Vero cells were seeded into 96-well plates (BD Biosciences, San Diego, California, USA) overnight before treatment with the compounds at concentrations ranging from 0.4 to 100 µM for 72 h. Doxorubicin (0.2 µg/mL) was used as a positive control for cell death assessment and DMSO was used as a vehicle control. After treatment, washed cells (433× g, 5 min, 25 °C) were exposed to 125 µL of complete DMEM containing 25 µL of XTT solution and incubated (37 °C, 5% CO2, 95% humidity) for 4 h. The optical density of the mixture was measured at 450 nm with a background at 690 nm using a Multiskan Ascent 96/384 microplate reader (Labsystem, Vantaa, Finland). Cell viability was determined as a percentage relative to the vehicle control. The IC50 was then calculated using GraphPad Prism 6 (GraphPad Software, Inc, San Diego, CA, USA). […] Statistical significance was calculated using a two-way analysis of variant (ANOVA) and the Bonferroni post-test to compare replicate means in GraphPad Prism 6 (GraphPad Software, Inc, San Diego, CA, USA). […]

MIA PaCa-2 cells [3] = experiment: XTT cytotoxicity assay on MIA PaCa-2 cells; assay type: cell-based; details: 72 h
Description: The cytotoxic effect of BA and PEG–BA was assessed using the 2,3-bis-(2-methoxy-4-nitro-5-sulfophenyl)-2H-tetrazolium-5-carboxanilide (XTT) assay, an improved tetrazolium dye based assay that obviates the solubilisation step [41]. A concentration of 1 × 10^5 cells/mL each of adherent MIA PaCa-2 and Vero cells were seeded into 96-well plates (BD Biosciences, San Diego, California, USA) overnight before treatment with the compounds at concentrations ranging from 0.4 to 100 µM for 72 h. Doxorubicin (0.2 µg/mL) was used as a positive control for cell death assessment and DMSO was used as a vehicle control. After treatment, washed cells (433× g, 5 min, 25 °C) were exposed to 125 µL of complete DMEM containing 25 µL of XTT solution and incubated (37 °C, 5% CO2, 95% humidity) for 4 h. The optical density of the mixture was measured at 450 nm with a background at 690 nm using a Multiskan Ascent 96/384 microplate reader (Labsystem, Vantaa, Finland). Cell viability was determined as a percentage relative to the vehicle control. The IC50 was then calculated using GraphPad Prism 6 (GraphPad Software, Inc, San Diego, CA, USA). The selectivity index (IC50 Vero cells/IC50 MIA PaCa-2) and potentiation factor (PF50) at 50% growth inhibition (IC50) were also determined. The PF50 is the IC50 value of free drug divided by the IC50 value obtained from a combination of drugs, which is the polymer drug conjugate in this case. Statistical significance was calculated using a two-way analysis of variant (ANOVA) and the Bonferroni post-test to compare replicate means in GraphPad Prism 6 (GraphPad Software, Inc, San Diego, CA, USA). A p < 0.05 was considered to be statistically significant.

IL-6 = experiment: Cytometric bead array Th1/Th2/Th17, IL-6 in supernatant of PHA-P stimulated PBMCs; assay type: cell-based, human; details: 3 µM, 72 h
Description: as §1, with “After the 72 h incubation period, the cells and medium were transferred to 5 mL Falcon® round-bottom polypropylene tubes and centrifuged at 433× g for 5 min at room temperature. Aliquots of the cell-free supernatant were collected and stored at −80 °C until needed for experiments.” left out
The CBA Th1/Th2/Th17 assay was performed according to the manufacturer’s instructions (BD Biosciences, La Jolla, San Diego, CA, USA) and as previously described, but with minor modifications. […] Specific fluorescence associated with each bead population was detected using flow cytometry allowing for the identification of the various cytokines in the sample. […] Acquired FCS files were analysed using a flow cytometric analysis software (FCAPArray™) from BD Biosciences. Interferon-gamma (IFN-γ), TNF-α, IL-2, IL-4, IL-6, IL-10 and IL-17A concentrations were all determined from standard curves. […]

MIA PaCa-2 cells [4] = experiment: Annexin V-FITC / propidium iodide apoptosis detection by flow cytometry; assay type: cell-based, human; details: 4 µM, 72 h
Description: The mode of cell death induced by the BA and PEG–BA on MIA PaCa-2 and Vero cells was assessed using the Annexin V-FITC Apoptosis kit I (BD Biosciences, San Diego, CA, USA). The assay was performed per the manufacturer’s protocol and as previously described with slight modifications. The cells were analysed for apoptosis and necrosis after acquiring 30,000 events using a BD LSRFortessa™ Analyser (BD Biosciences, San Diego, CA, USA). The BD FACSDiva software was used to detect fluorescein isothiocyanate (FITC) positive signals for apoptotic cells (Annexin-v positive) on a 530/30 filter and peridinin–chlorophyll–protein (PerCP) positive signals for necrotic cells (propidium iodide positive) on a 610/20 band pass filter. Apoptosis was determined at three different concentrations around the IC50, 1, 1.7 and 4 µM. Doxorubicin (0.2 ug/mL) was used as a positive control for apoptosis induction. The data were exported as flow cytometry standard (FCS) files and analysed using FlowJo software Version 10 (FlowJo, LLC, Ashland, OR, USA). The data were exported and represented as means ± standard error of three independent experiments using GraphPad Prism 6.

SMILES: C=C(C)[C@@H]1CC[C@]2(C(=O)O)CC[C@]3(C)[C@H](CC[C@@H]4[C@@]5(C)CC[C@H](O)C(C)(C)[C@@H]5CC[C@]43C)[C@@H]12 [BA, betulinic acid]
- cytotoxicity on PBMCs [1]: 49.2 ± 0.8%
- viability at 72 h, 3 µM [2]: 9.2 ± 0.8%
- IC50 (Vero cells; Primates, XTT): 18.2 ± 0.09 µM
- IC50 (MIA PaCa-2 cells [3]; Homo sapiens, MIA PaCa-2 cells, XTT): 12.7 ± 0.34 µM
- selectivity index (SI) (IC50 Vero cells/IC50 MIA PaCa-2) (MIA PaCa-2 cells [3]; Vero vs MIA PaCa-2, XTT): 1.4 and 1.43
- IL-6 concentration (IL-6; PBMCs of PC patients (n = 4), average): 5430.94 pg/mL
- IL-6 concentration (IL-6; PBMCs of control participants (n = 2)): 396.24 pg/mL
- highest apoptotic effect (mainly late-apoptotic phase) (MIA PaCa-2 cells [4]): 31.43 ± 16.7%

SMILES: COc1cccc2c1C(=O)c1c(O)c3c(c(O)c1C2=O)C[C@@](O)(C(=O)CO)C[C@@H]3O[C@H]1C[C@H](N)[C@H](O)[C@H](C)O1 [Doxorubicin]
- cell death (cytotoxicity) (Vero cells; 0.2 µg/mL (0.4 µM)): 43.24 ± 14.2%
- cell death (cytotoxicity) (MIA PaCa-2 cells [3]; MIA PaCa-2 cells, 0.2 µg/mL (0.4 µM)): 83.3 ± 1.6%

Reference: PMC8223974, “Anti-Cancer and Immunomodulatory Activity of a Polyethylene Glycol-Betulinic Acid Conjugate on Pancreatic Cancer Cells” (Life, 2021)
